Literature values, collected in patent publication US20060014828A1 (priority 2004, published 2006).
Structures can show the parent of a compound that is named as a salt.

Solubility in alcohol | Solubility in ether | SMILES | Solubility in water | Solubility in organic solvents such as ethanol, ether and chloroform
slightly soluble | very slightly soluble | NNc1nncc2ccccc12 [Hydralazine hydrochloride] | soluble | –
– | – | O=[N+]([O-])O[C@H]1CO[C@H]2[C@@H]1OC[C@H]2O[N+](=O)[O-] [isosorbide dinitrate, 1,4,3,6-dianhydro-D-glucitol-2,5-dinitrate] | sparingly soluble | freely soluble
